Measurements taken from patent US6215002A, “Pyrrolopyrrolone derivatives as inhibitors of neutrophil elastase” (priority 1996, dated 2001).
Counter-ions that a name gives are not always drawn.

molecular target: T1, human neutrophil elastase (Homo sapiens, UniProt P08246); assay: In vitro assay of human neutrophil elastase (HNE); format: biochemical; conditions: 118 nM purified human neutrophil elastase, pH 8.6, 15 min incubation at 30° C., MeO-succinyl-alanyl-alanyl-prolyl-valyl-p-nitroanilide substrate; read-out: HNE IC50
T1 sequence (P08246 30-267): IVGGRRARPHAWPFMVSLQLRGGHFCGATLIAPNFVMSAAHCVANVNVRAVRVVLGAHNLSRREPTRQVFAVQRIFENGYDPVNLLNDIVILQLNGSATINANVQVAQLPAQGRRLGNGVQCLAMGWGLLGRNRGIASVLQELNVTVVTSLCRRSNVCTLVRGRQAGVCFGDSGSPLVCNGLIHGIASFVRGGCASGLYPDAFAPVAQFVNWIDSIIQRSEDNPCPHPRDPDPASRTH
Summary of the method: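 Residual activity was taken as the 10 min rate of absorbance rise at 405 nm after adding 0.6 mM MeO-succinyl-AAPV-p-nitroanilide. Curve fitting of activity against concentration gave IC50.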

IC50 | Compound
69 nM | CCC[C@H]1C(=O)N(S(=O)(=O)c2cccnc2)[C@H]2CCN(C(=O)CCN3CCCCC3)[C@H]12 (relative stereo) [Example 172, rel-(3R,3aR,6aS)-4-(3-Piperidin-1-yl-propionyl)-3-propyl-1-(pyridine-3-sulfonyl)-hexahydro-pyrrolo[3,2-b]pyrrol-2-one dihydrochloride]
153 nM | CC(C)[C@H]1C(=O)N(S(C)(=O)=O)[C@H]2CCN(S(=O)(=O)c3ccc(CN(C)C)cc3)[C@H]12 (relative stereo) [Example 197, rel-(3R,3aR,6aS)-4-(4-Dimethylaminomethyl-benzenesulfonyl)-3-isopropyl-1-methanesulfonyl-hexahydro-pyrrolo[3,2-b]pyrrol-2-one hydrochloride]
127 nM | CC(C)[C@H]1C(=O)N(S(C)(=O)=O)[C@H]2CCN(S(=O)(=O)c3ccc(CN4CCCCC4)cc3)[C@H]12 (relative stereo) [Example 198, rel-(3R,3aR,6aS)-3-Isopropyl-1-methanesulfonyl-(4-piperidin-1-ylmethyl-benzenesulfonyl)-hexahydro-pyrrolo[3,2-b]pyrrol-2-one hydrochloride]
38 nM | CCC[C@H]1C(=O)N(S(=O)(=O)c2ccc(C(F)(F)F)cc2)[C@H]2CCN(C(=O)CCCCCN3CCCCC3)[C@H]12 (relative stereo) [Example 202, rel-(3R,3aR,6aS)-4-(6-Piperidin-1-yl-hexanoyl)-3-propyl-1-(4-trifluoromethyl-benzenesulfonyl)-hexahydro-pyrrolo[3,2-b]pyrrol-2-one DL-tartrate]
28 nM | CCC[C@H]1C(=O)N(S(=O)(=O)c2ccc(C#N)cc2)[C@H]2CCN(C(=O)CCCCCN3CCCCC3)[C@H]12 (relative stereo) [Example 205, rel-4-[2-Oxo-4-(6-piperidin-1-yl-hexanoyl)-3R-propyl-hexahydro-(3aR,6aS)-pyrrolo[3,2-b]pyrrole-1-sulfonyl]-benzonitrile DL-tartrate]
54 nM | CCC[C@H]1C(=O)N(S(=O)(=O)c2ccccc2)[C@H]2CCN(S(=O)(=O)CCCN3CCCCC3)[C@H]12 (relative stereo) [Example 208, rel-(3R,3aR,6aS)-1-Benzenesulfonyl-4-(3-piperidin-1-yl-propane-1-sulfonyl)-3-propyl-hexahydro-pyrrolo[3,2-b]pyrrol-2-one DL-tartrate]
140 nM | CCC[C@H]1C(=O)N(S(C)(=O)=O)[C@H]2CCN(S(=O)(=O)c3ccc([N+](=O)[O-])cc3)[C@H]12 (relative stereo) [Example 211, rel-(3R,3aR,6aS)-1-Methanesulfonyl-4-(4-nitro-benzenesulfonyl)-3-propyl-hexahydro-pyrrolo[3,2-b]pyrrol-2-one]
28 nM | CCC[C@H]1C(=O)N(S(C)(=O)=O)[C@H]2CCN(S(=O)(=O)c3ccc(Cl)cc3)[C@H]12 (relative stereo) [Example 215, rel-(3R,3aR,6aS)-4-(4-Chloro-benzenesulfonyl)-1-methanesulfonyl-3-propyl-hexahydro-pyrrolo[3,2-b]pyrrol-2-one]

The next lines start with the compound.

Compound | IC50
CCC[C@H]1C(=O)N(S(=O)(=O)c2cccc3nsnc23)[C@H]2CCN(C(=O)CCN3CCCCC3)[C@H]12 (relative stereo) [Example 168, rel-(3R,3aR,6aS)-1-(Benzo[1,2,5]thiadiazole-4-sulfonyl)-4-(3-piperidin-1-yl-propionyl)-3-propyl-hexahydro-pyrrolo[3,2-b]pyrrol-2-one DL-tartrate] | 208 nM
CCC[C@H]1C(=O)N(S(=O)(=O)c2cccs2)[C@H]2CCN(C(=O)CCCCCN3CCCCC3)[C@H]12 (relative stereo) [Example 169, rel-(3R,3aR,6aS)-4-(6-Piperidin-1-yl-hexanoyl)-3-propyl-1-(thiophene-2-sulfonyl)-hexahydro-pyrrolo[3,2-b]pyrrol-2-one DL-tartrate] | 29 nM
CCC[C@H]1C(=O)N(S(=O)(=O)c2c(C)noc2C)[C@H]2CCN(C(=O)CCN3CCCCC3)[C@H]12 (relative stereo) [Example 170, rel-(3R,3aR,6aS)-1-(3,5-Dimethyl-isoxazole-4-sulfonyl)-4-(3-piperidin-1-yl-propionyl)-3-propyl-hexahydro-pyrrol[3,2-b]pyrrol-2-one DL-tartrate] | 180 nM
CCC[C@H]1C(=O)N(S(=O)(=O)c2ccccn2)[C@H]2CCN(C(=O)CCN3CCCCC3)[C@H]12 (relative stereo) [Example 171, rel-(3R,3aR,6aS)-4-(3-Piperidin-1-yl-propionyl)-3-propyl-1-(pyridine-2-sulfonyl)-hexahydro-pyrrolo[3,2-b]pyrrol-2-one hydrochloride] | 39 nM
CCC[C@H]1C(=O)N(S(C)(=O)=O)[C@H]2CCN(S(=O)(=O)c3ccc(CN4CCCCC4)cc3)[C@H]12 (relative stereo) [Example 194, rel-(3R,3aR,6aS)-1-Methanesulfonyl-4-(4-piperidin-1-ylmethyl-benzenesulfonyl)-3-propyl-hexahydro-pyrrolo[3,2-b]pyrrol-2-one hydrochloride] | 60 nM
CCC[C@H]1C(=O)N(S(C)(=O)=O)[C@H]2CCN(S(=O)(=O)c3ccc(CN4CCCCCC4)cc3)[C@H]12 (relative stereo) [Example 195, rel-(3R,3aR,6aS)-4-(4-Azepin-1-ylmethyl-benzenesulfonyl)-1-methanesulfonyl-3-propyl-hexahydro-pyrrolo[3,2-b]pyrrol-2-one hydrochloride] | 68 nM
CCC[C@H]1C(=O)N(S(C)(=O)=O)[C@H]2CCN(S(=O)(=O)c3ccc(CN(C)C)cc3)[C@H]12 (relative stereo) [Example 196, rel-(3R,3aR,6aS)-4-(4-Dimethylaminomethyl-benzenesulfonyl)-1-methanesulfonyl-3-propyl-hexahydro-pyrrolo[3,2-b]pyrrol-2-one hydrochloride] | 34 nM
CC(C)[C@H]1C(=O)N(S(C)(=O)=O)[C@H]2CCN(S(=O)(=O)c3ccc(CN4CCCCCC4)cc3)[C@H]12 (relative stereo) [Example 199, rel-(3R,3aR,6aS)-4-(4-Azepin-1-ylmethyl-benzenesulfonyl)-3-isopropyl-1-methanesulfonyl-hexahydro-pyrrolo[3,2-b]pyrrol-2-one hydrochloride] | 99 nM
CCC[C@H]1C(=O)N(S(=O)(=O)c2ccc([N+](=O)[O-])cc2)[C@H]2CCN(C(=O)CCCCCN3CCCCC3)[C@H]12 (relative stereo) [Example 203, rel-(3R,3aR,6aS)-1-(4-Nitro-benzenesulfonyl)-4-(6-piperidin-1-yl-hexanoyl)-3-propyl-hexahydro-pyrrolo[3,2-b]pyrrol-2-one DL-tartrate] | 38 nM
CCCCOc1ccc(S(=O)(=O)N2C(=O)[C@H](CCC)[C@@H]3[C@@H]2CCN3C(=O)CCCCCN2CCCCC2)cc1 (relative stereo) [Example 204, rel-(3R,3aR,6aS)-1-(4-Butoxy-benzenesulfonyl)-4-(6-piperidin-1-yl-hexanoyl)-3-propyl-hexahydro-pyrrolo[3,2-b]pyrrol-2-one DL-tartrate] | 98 nM
CCC[C@H]1C(=O)N(S(=O)(=O)c2ccccc2)[C@H]2CCN(C(=O)CCCCCN3CCCCC3)[C@H]12 (relative stereo) [Example 206, rel-(3R,3aR,6aS)-1-Benzenesulfonyl-4-(6-piperidin-1-yl-hexanoyl)-3-propyl-hexahydro-pyrrol[3,2-b]pyrrol-2-one DL-tartrate] | 87 nM
CCC[C@H]1C(=O)N(S(=O)(=O)c2ccc(Cl)cc2)[C@H]2CCN(C(=O)CCCCCN3CCCCC3)[C@H]12 (relative stereo) [Example 207, rel-(3R,3aR,6aS)-1-(4-Chloro-benzenesulfonyl)-4-(6-piperidin-1-yl-hexanoyl)-3-propyl-hexahydro-pyrrolo[3,2-b]pyrrol-2-one DL-tartrate] | 38 nM
CCC[C@H]1C(=O)N(S(=O)(=O)c2ccc(N)cc2)[C@H]2CCN(C(=O)CCCCCN3CCCCC3)[C@H]12 (relative stereo) [Example 209, rel-(3R,3aR,6aS)-1-(4-Amino-benzenesulfonyl)-4-(6-piperidin-1-yl-hexanoyl)-3-propyl-hexahydro-pyrrolo[3,2-b]pyrrol-2-one DL-tartrate] | 71 nM
CC(=O)Nc1ccc(S(=O)(=O)N2CC[C@H]3[C@H]2[C@@H](C(C)C)C(=O)N3S(C)(=O)=O)cc1 (relative stereo) [Example 210, rel-N-[4-(6R-Isopropyl-4-methanesufonyl-5-oxo-hexahydro-(3aS,6aR)-pyrrolo[3,2-b]pyrrole-1-sulfonyl)-phenyl]-acetamide] | 103 nM
CCC[C@H]1C(=O)N(S(C)(=O)=O)[C@H]2CCN(S(=O)(=O)c3ccc(N4CCCC4=O)cc3)[C@H]12 (relative stereo) [Example 212, rel-(3R,3aR,6aS)-1-Methanesulfonyl-4-[4-(2-oxo-pyrrolidin-1yl)-benzenesufonyl]-3-propyl-hexahydro-pyrrolo[3,2-b]pyrrol-2-one] | 30 nM
CCC[C@H]1C(=O)N(S(C)(=O)=O)[C@H]2CCN(S(=O)(=O)c3ccc(NC(C)=O)c(Cl)c3)[C@H]12 (relative stereo) [Example 213, rel-N-[2-Chloro-4-(4-methanesulfonyl-5-oxo-6R-propyl-hexahydro-(3aS,6aR)-pyrrolo[3,2-b]pyrrole-1-sulfonyl)-phenyl]-acetamide] | 40 nM
CCCCOc1ccc(S(=O)(=O)N2CC[C@H]3[C@H]2[C@@H](CCC)C(=O)N3S(C)(=O)=O)cc1 (relative stereo) [Example 214, rel-(3R,3aR,6aS)-4-(4-Butoxy-benzenesulfonyl)-1-methanesulfonyl-3-propyl-hexahydro-pyrrolo[3,2-b]pyrrol-2-one] | 464 nM
